The target of one test is T1, HSF-PLA2 (Homo sapiens, UniProt P14555).
T1 construct: extracellular enzyme obtained from human synovial fluid (HSF-PLA2); from tissue; host or cells: pooled human synovial fluid, added at 0.1% (v/v)
T1 sequence (P14555 21-144): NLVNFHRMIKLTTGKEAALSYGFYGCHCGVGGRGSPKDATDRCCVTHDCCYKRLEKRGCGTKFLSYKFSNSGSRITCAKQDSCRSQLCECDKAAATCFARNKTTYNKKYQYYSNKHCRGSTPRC
Nature of the test: Assay for Inhibition of HSF-PLA2 In Vitro. The format is biochemical. The following applies: for IC50: read-out: Inhib of HSF-PLA2 IC50; for inhibition at 1 µM: read-out: Inhib of HSF-PLA2, % inhibition. Here is the method: Assay for Inhibition of HSF-PLA2 In Vitro
The PLA2 used in this test is the extracellular enzyme obtained from human synovial fluid (HSF-PLA2).
The optimal conditions which were developed for the assay of HSF-PLA2 inhibitors are summarized as follows. […] The reaction was initiated by the addition of HSF-PLA2 and duplicate samples of the mixture were incubated in 13×100 mm glass tubes with shaking for 30 minutes at 37° C. […] The extraction of lipids from the stopped reaction mixture was conducted by the further additions of […] of chloroform and 1 ml of water with mixing. After centrifuging, the lower chloroform phase was transferred to smaller glass tubes and the solvent was evaporated to dryness with a nitrogen stream. The extracted lipid residue was redissolved in 50 μl of a solution containing carrier oleic acid (0.2 mg/ml) of chloroform-methanol [9 to 1, v/v]). The whole lipid extract was applied to a preactivated (30 minutes at 110° C.) silica gel-impregnated glass fiber thin layer chromatography sheet (ITLC type SG sheet from Gelman Sciences, Inc., Ann Arbor, Mich.) using hexane-acetic acid (100 to 1, v/v) as the developing solvent. This TLC system rapidly (6 minutes) resolved the enzymatically released product, ^14 C-oleic acid, from the unreacted ^14 C-phospholipid substrate. The unsaturated lipids were located on the chromatogram by a brief exposure to iodine vapor. […] A control incubation of substrate in the absence of HSF-PLA2 was performed in each experiment.

The next test deals with PLA2 Rat Paw Edema. The experiment in a line: Phospholipase A2 Rat Paw Edema. The format is in vivo, Lewis rats. The following applies: Rattus norvegicus; 2 hr; 30 mg/kg; read-out: % Inhib of PLA2 Rat Paw Edema 2 hr (30 mg/kg). As for the experimental part: Phospholipase A2 Rat Paw Edema
Representation compounds of the invention were tested in rats to determine their ability to inhibit the acute inflammatory response induced by the injection of snake venom phospholipase A2. Test compounds are administered intraperitoneally or orally to groups of seven Lewis rats (≈200 gm) 1 hr prior to phospholipase A2 administration. The test compounds are dissolved in dimethyl sulfoxide for intraperitoneal administration and dissolved or suspended in Labrafil M-1944CS for oral administration. At 0 hr, 5 ug (10 units) of purified phospholipase A2 from Naja naja venom (Sigma Chem. Co.) dissolved in 0.1 mL of pyrogen free saline is injected subplantarly into the right hind paw to elicit the inflammatory response. The volume (in mL) of the right hind paw is measured by immersion of the paw to the level of the lateral malleolus in an aqueous plethysmometer immediately prior to the injection of phospholipase A2 and then at 0.5, 2 and 4 hr after phospholipase A2 injection. The paw edema is calculated by subtracting the zero time reading from the readings taken after injection. The percent change of the edema volume from the vehicle treated control is calculated to determine the activity of the test compound. Statistical analysis of the mean paw edema values of the control versus the treated groups is performed using Student's t-test. Significance of changes from mean value for vehicle-treated animals (*p<0.05, **p<0.01, ***p<0.001, ns/not significant).

The subject of test [1] is Croton Oil Mouse Ear Edema. Nature of the test: Croton Oil Mouse Ear Edema Test. The following applies: topical, coapplied, 6 hours. The format is in vivo, CD-1 mice.

SMILES strings stand for the structures. Where a name gives a salt, the structure may show the parent alone.

For `CCCCCCCCC(O)COc1cc(OCC(O)CCCCCCCC)cc(N(CC(=O)O)CC(=O)O)c1` (racemic) [Example 6h, rac-N-(carboxymethyl)-N-[3,5-bis[[2-hydroxydecyl)oxy]phenyl]glycine], the IC50 (as a rule, the concentration that inhibits the measured activity by half) on HSF-PLA2 turned out to be 500 nM. Also, the inhibition in vivo at 30 mg/kg in the test on PLA2 Rat Paw Edema stood at 5%.
For `CCCCOc1cc(OCCCC)cc(N(CC(=O)O)CC(=O)O)c1` [Example 6a, N-[3,5-bis(butoxy)phenyl]-N-(carboxymethyl)glycine] the same measures were 2000 nM and 33%.
In the same order, the values of `CCCCCCOc1cc(OCCCCCC)cc(N(CC(=O)O)CC(=O)O)c1` [Example 6b, N-(carboxymethyl)-N-[3,5-bis(hexyloxy)phenyl]glycine] are 2100 nM and 25%.
For the molecule `O=C(O)CN(CC(=O)O)c1cc(OCCCc2ccccc2)cc(OCCCc2ccccc2)c1` [Example 6g, N-(carboxymethyl)-N-[3,5-bis(3-phenylpropoxy)phenyl]glycine], on HSF-PLA2, the half-maximal inhibitory concentration (IC50) is 1300 nM. Besides, the inhibition in vivo at 30 mg/kg with PLA2 Rat Paw Edema turned out to be 26%.
Turning to `CCCCCCCCCCCCCCNC(=O)c1cc(C(=O)NCCCCCCCCCCCCCC)cc(N(CC(=O)O)CC(=O)O)c1` [Example 6q, N-(carboxymethyl)-N-[3,5-bis[(tetradecylamino)carbonyl]phenyl]glycine], on HSF-PLA2, the IC50 came to 300 nM. Moreover, in the test on PLA2 Rat Paw Edema, the inhibition in vivo at 30 mg/kg came to 0%.
In the case of `CCCCCCCCCCCCCCCc1cccc(OCCCOc2cccc(N(CC(=O)O)CC(=O)O)c2)c1` [Example 36i, N-(carboxymethyl)-N-[3-{3-(3-pentadecylphenoxy)propoxy]phenyl]glycine], on HSF-PLA2, the IC50 worked out at 400 nM. Besides, in the test on PLA2 Rat Paw Edema, the inhibition in vivo at 30 mg/kg was determined as 7%.
Take `CCCCc1ccc(N(CC(=O)O)CC(=O)O)cc1` [Example 39b, N-(carboxymethyl)-N-(4-butylphenyl)glycine]: the IC50 at HSF-PLA2 was found to be 264000 nM. Besides, in the test on PLA2 Rat Paw Edema, the inhibition in vivo at 30 mg/kg is -9%.
On to `CCCCCCCCCCCCCCCCCCOc1cc(OCCCOc2ccc(C(=O)O)cc2)cc(N(CC(=O)O)CC(=O)O)c1` [Example 58p], for which the IC50 at HSF-PLA2 turned out to be 600 nM. In test [1], the “% Inhib of Croton Oil Mouse Ear Edema (1 mg)” value amounted to 0%.
For the molecule `CCCCCCCCCCCCCCCCCCOc1cc(NC(C)=O)cc(N(CC(=O)O)CC(=O)O)c1` [Example 98], on HSF-PLA2, the inhibition (usually the share of the control response that was lost under treatment) at 1 µM amounted to 98%. In the test on PLA2 Rat Paw Edema, the inhibition in vivo at 30 mg/kg is 51%.
In the case of `CCCCCCCCCCOc1cc(OCCCCCCCCCC)cc(N(CC(=O)OCCN(CC)CC)CC(=O)OCCN(CC)CC)c1` [Example 130, N-[3,5-bis(Decyloxy)phenyl]-N-[2-[2-(diethylamino)ethoxy]-2-oxoethyl]glycine 2-(diethylamino)ethyl ester dihydrochloride], the inhibition in vivo at 30 mg/kg with PLA2 Rat Paw Edema was 2%.
On to `CCCCCCCCCCOc1cc(OCCCCCCCCCC)cc(N(CC(=O)OCOC(C)=O)CC(=O)OCOC(C)=O)c1` [Example 132, N-[2-[(Acetyloxy)methoxy]-2-oxoethyl]-N-[3,5-bis(decyloxy)phenyl]glycine (acetyloxy)methyl ester], for which the “% Inhib of Croton Oil Mouse Ear Edema (1 mg)” value in test [1] worked out at 36%.
Take `CCCCCCCCCCCCCCCCCCOc1cc(OCCOCCOCCOCCOC)cc(N(CC(=O)O)CC(=O)O)c1` [Example 156, N-(Carboxymethyl)-N-[3-[2-[2-(2-methoxyethoxy)ethoxy]ethoxy]ethoxy]-5-(octadecyloxy)phenyl glycine]: the inhibition at 1 µM at HSF-PLA2 is 100%. Moreover, in the test on PLA2 Rat Paw Edema, the inhibition in vivo at 30 mg/kg was 29%.
For the molecule `CCCCCCCCCCCCCCCCCCOc1cc(SC)cc(N(CC(=O)O)CC(=O)O)c1` [Example 166, N-(Carboxymethyl)-N-[3-(methylthio)-5-(octadecyloxy)phenyl]glycine], on HSF-PLA2, the inhibition at 1 µM stood at 88%. Moreover, in the test on PLA2 Rat Paw Edema, the inhibition in vivo at 30 mg/kg came to 31%.
Turning to `CCCCCCCCCCCCCCCCCCOc1cc(N(CC(=O)O)CC(=O)O)cc([S+](C)[O-])c1` (centres unmarked) [Example 172, N-(Carboxymethyl)-N-[3-(methylsulfinyl)-5-(octadecyloxy)phenyl]glycine], at HSF-PLA2, the inhibition at 1 µM was determined as 39%. Further, the inhibition in vivo at 30 mg/kg with PLA2 Rat Paw Edema amounted to 43%.
